Experiment: in vitro
Conditions: human, hela cells, % viability

Compound	viability at 28.5 h, 10 µM	viability at 28.5 h, 10 µM (bulk resorufin, single well)
CN(C)CC(=O)N1c2ccccc2CCc2ccc(NC(=O)c3ccccc3)cc21 [CBK261289C]	94.2%	–
CCOC(=O)Nc1ccc2c(c1)N(C(=O)CN(C)C)c1ccccc1S2 [CBK261290C]	106%	–
O=C(Nc1ccccc1)NC(N1CCOCC1)C(Cl)(Cl)Cl (centres unmarked) [CBK261293]	103%	–
O=C(CSc1nc2ccccc2[nH]1)c1ccccc1 [CBK261298]	92.9%	–
NS(=O)(=O)c1ccc(NC(=O)CCCN2C(=O)/C(=C/c3ccc(Cl)cc3)SC2=S)cc1 [CBK261302]	87.9%	–
CC1CCN(CN2C(=O)C(=O)c3ccccc32)CC1 [CBK261304]	91.7%	–
N/N=C(\CCC(=O)O)c1ccccc1 [CBK261306]	98.3%	–
O=C(O)CC1Sc2ccccc2NC1=O (centres unmarked) [CBK261308]	101%	–
CCOC(=O)c1c(C)n(-c2ccc(C)cc2)c2ccc(Oc3ncccc3C#N)cc12 [CBK261310]	109%	–
CSCCC(NC=C1C(=O)CC(C)(C)CC1=O)C(=O)O (centres unmarked) [CBK261311]	92.9%	–
CCN(CC)CCNC(=O)CN1CCCC1=O [CBK261312]	–	84.6%
CN(C)Cc1c(O)ccc2occ(C(O)c3ccccc3)c12 (centres unmarked) [CBK261313]	104%	–
CC(=O)SCCC(=O)N1C(C)CCCC1C(=O)O (centres unmarked) [CBK261315]	93.1%	–
O=C(Nc1cccc2cccnc12)c1ccc(Cl)c(Cl)c1 [CBK261318]	91.5%	–
COc1cccc(NC(=O)CCCC(=O)O)c1 [CBK261324]	98.1%	–
O=C(O)CCC(=O)Nc1ccccc1C(=O)O [CBK261325]	91.1%	–
O=C(O)CN(CC(=O)O)c1ccccc1 [CBK261326]	90.7%	–
Cc1ccc(NC(=O)c2cc(C(=O)Nc3ccc(C)c(C)c3)cc(N3C(=O)c4ccccc4C3=O)c2)cc1C [CBK261328]	93.8%	–
CC(C)(C)C(=O)Nc1ccc(C(=O)Nc2cccc(C(=O)O)c2)cc1 [CBK261329]	94.8%	–
O=C(O)CCC(=O)Nc1ccc(-c2nc3ccccc3o2)cc1 [CBK261330]	98%	–
O=C(O)c1ccc2c(c1)C(=O)N(c1ccc3c(c1)Cc1cc(N4C(=O)c5ccc(C(=O)O)cc5C4=O)ccc1-3)C2=O [CBK261333]	90.5%	–
O=C(Nc1ccc(O)cc1)c1ccc2c(c1)C(=O)N(c1cccc(N3C(=O)c4ccc(C(=O)Nc5ccc(O)cc5)cc4C3=O)n1)C2=O [CBK261334]	102%	–

Compound	viability at 28.5 h, 10 µM	viability at 28.5 h, 10 µM (bulk resorufin, single well)
O=C1c2ccc(S(=O)(=O)c3ccc4c(c3)C(=O)N(c3nccs3)C4=O)cc2C(=O)N1c1nccs1 [CBK261335]	105%	–
O=C(O)c1cc(C(=O)O)cc(N2C(=O)c3ccc(S(=O)(=O)c4ccc5c(c4)C(=O)N(c4cc(C(=O)O)cc(C(=O)O)c4)C5=O)cc3C2=O)c1 [CBK261336]	100%	–
CC(=O)NCC(CN1CCOCC1)([N+](=O)[O-])[N+](=O)[O-] [CBK261337]	88.2%	–
O=C(NCC(CN1CCOCC1)([N+](=O)[O-])[N+](=O)[O-])c1ccccc1 [CBK261339]	100%	–
O=C1C2(Cc3ccccc3)CN3CN(C2)CC1(Cc1ccccc1)C3 [CBK261341]	89.9%	–
CCOC(=O)NC(Nn1cnnc1)(C(F)(F)F)C(F)(F)F [CBK261344]	117%	–
COC(=O)CCC(=O)Nc1cccc([N+](=O)[O-])c1 [CBK261345]	95.4%	–
COc1cc(/C=N/NC(=O)c2ccc([N+](=O)[O-])cc2)ccc1OC(C)=O [CBK261348]	112%	–
COC(=O)CCC(=O)Nc1ccc(S(N)(=O)=O)cc1 [CBK261351]	88.1%	–
O=C(O)CCC(=O)NNC(=O)c1ccc(O)cc1 [CBK261353]	105%	–
CCCOc1ccc(C(N)CC(=O)O)cc1 (centres unmarked) [CBK261360]	93.5%	–
CCOc1ccc(C(C)(N)C(=O)O)cc1 (centres unmarked) [CBK261362]	121%	–
CCOc1ccc(C(CC(=O)O)C(=O)O)cc1 (centres unmarked) [CBK261363]	96.7%	–
O=S(=O)(c1ccc(-c2ccc(S(=O)(=O)N3CCOCC3)cc2)cc1)N1CCOCC1 [CBK261366]	103%	–
O=S(=O)(c1ccc(Cl)c(S(=O)(=O)N2CCOCC2)c1)c1ccc(Cl)c(S(=O)(=O)N2CCOCC2)c1 [CBK261369]	112%	–
C/C(CCS(=O)(=O)c1ccc(Br)cc1)=N\NC(N)=S [CBK261370]	102%	–
O=C(O)CC1S/C(=N/N=C/c2ccco2)NC1=O (centres unmarked) [CBK261371]	93.7%	–
O=C(N/N=C/C=C/c1ccc([N+](=O)[O-])cc1)C(O)c1ccccc1 (centres unmarked) [CBK261373]	81.5%	–
COc1ccc(OCC(=O)N/N=C/c2ccc([N+](=O)[O-])s2)c(I)c1 [CBK261374]	93.1%	–
O=C(N/N=C\c1cccc2ccccc12)c1ccc(CO)nc1 [CBK261377]	104%	–
C1CN(c2nc(N3CCOCC3)nc(N3CCOCC3)n2)CCN1 [CBK261380]	84.9%	–
CC1=C(C(=O)Nc2ccccc2)C(c2cccs2)C(C#N)=C(SCC(=O)c2ccc(Br)cc2)N1 (centres unmarked) [CBK261384]	104%	–

Compound	viability at 28.5 h, 10 µM	viability at 28.5 h, 10 µM (bulk resorufin, single well)
O=C(/C=C\c1ccco1)Oc1ccc(/C=N\NC(=O)c2cncc(Br)c2)cc1 [CBK261385]	83.2%	–
CCOc1cc(/C=N/NC(=O)c2cncc(Br)c2)c(Br)c(Br)c1O [CBK261386]	86.3%	–
COc1ccccc1/C=N/C12CN3CN(CN(C3)C1)C2 [CBK261387]	93%	–
C=C(C)C(=O)OCCOC(=O)c1cc(N)cc(N)c1 [CBK261389]	101%	–
O=C1c2ccc3c4c(ccc(c24)C(=O)N1c1ccncc1)C(=O)N(c1ccncc1)C3=O [CBK261390]	95.4%	–
CC(C)(C)C(=O)Nc1ccc(-c2ccc(NC(=O)C(C)(C)C)c(C(=O)O)c2)cc1C(=O)O [CBK261392]	108%	–
CC(C)(C)C(=O)Nc1ccc(Cc2ccc(NC(=O)C(C)(C)C)c(C(=O)O)c2)cc1C(=O)O [CBK261393]	104%	–
O=C(Nc1ccc(Br)cc1C(=O)O)c1cccc(C(=O)Nc2ccc(Br)cc2C(=O)O)c1 [CBK261395]	90.5%	–
O=C1c2ccc(Oc3ccc4c(c3)C(=O)N(c3ccncc3)C4=O)cc2C(=O)N1c1ccncc1 [CBK261399]	96.5%	–
O=C(O)c1ccc(N2C(=O)CC(N3CCN(C/C=C/c4ccccc4)CC3)C2=O)cc1 (centres unmarked) [CBK261402]	92.6%	–
O=C(NC(C(=O)O)C12CC3CC(CC(C3)C1)C2)c1ccc([N+](=O)[O-])cc1 (centres unmarked) [CBK261405]	94.7%	–
O=C(NC(Nc1ncccn1)C(Cl)(Cl)Cl)c1ccccc1 (centres unmarked) [CBK261408]	107%	–
O=C1N(Cc2cccc3ccccc23)c2ccccc2C1(c1ccc(O)cc1)c1ccc(O)cc1 [CBK261410]	88.4%	–
CCOC(=O)CC(=O)Nc1c(Br)cc(Br)cc1C(=O)O [CBK261412]	95.2%	–
NNC(=O)CCn1c2ccc(Cl)cc2c2cc(Cl)ccc21 [CBK261413]	88.8%	–
O=C(O)CCn1c2ccc(Cl)cc2c2cc(Cl)ccc21 [CBK261415]	89.5%	–
OC(Cn1cnc(-c2ccccc2)c1-c1ccccc1)Cn1c2ccccc2c2ccccc21 (centres unmarked) [CBK261416]	78.2%	–
OC(CN(c1ccccc1)c1ccccc1)Cn1cnc2ccccc21 (centres unmarked) [CBK261417]	86.8%	–
Cc1nc([N+](=O)[O-])c(N2CCN(C)CC2)n1Cc1ccccc1 [CBK261421]	100%	–
O=C(O)C1CCCN1S(=O)(=O)c1ccc([N+](=O)[O-])cc1 (centres unmarked) [CBK261424]	89.7%	–
O=C1NCCN/C1=C\C(=O)c1ccc(Br)cc1 [CBK261427]	90.2%	–
O=[N+]([O-])c1ccc(-c2nc(-c3ccccc3)c(-c3ccc4oc5ccc(-c6[nH]c(-c7ccc([N+](=O)[O-])cc7)nc6-c6ccccc6)cc5c4c3)[nH]2)cc1 [CBK261434]	93.9%	–

Compound	viability at 28.5 h, 10 µM	viability at 28.5 h, 10 µM (bulk resorufin, single well)
O=C(O)CCC/N=C1/CCCc2ccccc2N1 [CBK261435]	104%	–
CCOc1ccc(N2C(=O)NC(=O)/C(=C\NC(C)(CO)CO)C2=O)cc1 [CBK261437]	–	99.5%
O=C1NC(=O)C(=NNc2ccc(S(=O)(=O)O)cc2)C(=O)N1 [CBK261439]	–	88.7%
COc1nccnc1NS(=O)(=O)c1ccc(Nc2c([N+](=O)[O-])cc([N+](=O)[O-])c3nonc23)cc1 [CBK261441]	87.5%	–
CCc1nnc(NS(=O)(=O)c2ccc(Nc3ccc([N+](=O)[O-])c4nonc34)cc2)s1 [CBK261442]	92.3%	–
O=[N+]([O-])c1c(N(CCO)CCO)cc(Cl)c2nonc12 [CBK261446]	92.5%	–
O=[N+]([O-])c1ccc(N(CCO)CCO)c2nonc12 [CBK261447]	98.7%	–
Cc1nnc(NCCO)c2ccccc12 [CBK261448]	112%	–
Cn1c2ccccc2c2cc(/C=C(/NC(=O)c3ccccc3)C(=O)Nc3cccc(O)c3)ccc21 [CBK261449]	111%	–
O=C(Nc1cccc(Br)c1)/C(=C\c1cccnc1)NC(=O)c1ccccc1 [CBK261450]	85.8%	–
O=C(c1ccncc1)C12CN3CN(CN(C3)C1)C2 [CBK261451]	97.6%	–
CCCCNS(=O)(=O)c1ccccc1[N+](=O)[O-] [CBK261456]	93.1%	–
O=C(N/N=C/c1ccccc1O)c1cccc(C(=O)N/N=C/c2ccccc2O)n1 [CBK261459]	111%	–
O=C(O)c1ccccc1C(=O)OCCN1CCOCC1 [CBK261462]	85.4%	–
CCOC(=O)C(Cc1ccccc1)C(=O)Nc1ccc(Cl)cc1 (centres unmarked) [CBK261463]	84.2%	–
CN1C2CCC1CC(OC(=O)CCN1CCCC1)C2 (centres unmarked) [CBK261466]	95.3%	–
O=C1CCCN1C(=O)CN1CCOCC1 [CBK261467]	117%	–
CCN(CC)CCNc1c(N)c(=O)oc2ccccc12 [CBK261469]	91.7%	–
O=c1oc2ccccc2c2c1nnn2CCCN1CCOCC1 [CBK261470C]	95.2%	–
CN(C)CCNc1c(N)c(=O)oc2ccccc12 [CBK261472]	89.7%	–

— paper PMC12040169 (PLOS Biology, 2025)
